In patent publication US8937091B2 (Japan Science and Technology Agency, priority 2009, dated 2015):

Assays:
[1] = system: SOCE (store operated calcium entry) in CHO cells; assay: Assay of SOCE (store operated calcium entry)-inhibiting action; format: cell-based, Chinese hamster; details: CHO cells, thapsigargin; for inhibition at 10 µM / inhibition at 30 µM / inhibition at 100 µM: Cricetulus griseus, CHO, read-out: SOCE level (percentage of inhibition); for inhibition at 10 µM: test compound 10 μmol
Outline: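 CHO cells in calcium-free BSS received compound, then 1 μM thapsigargin 2 min later to deplete stores; after 9 min, 2 mM calcium chloride (final) added. Percent inhibition of the rise in intracellular calcium determined at various compound concentrations.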

[2] = system: IICR (IP3 induced calcium release) in CHO cells; assay: Assay of IICR (IP3 induced calcium release)-inhibiting action; format: cell-based, Chinese hamster; details: CHO cells, 10 μM ATP; for inhibition at 10 µM / inhibition at 30 µM / inhibition at 100 µM: Cricetulus griseus, CHO, read-out: IICR level (percentage of inhibition)
Outline: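 Inhibition (%) of the intracellular calcium increase triggered by 10 μM ATP, measured in CHO cells in BSS with calcium. Compound given 1 min after the buffer exchange and 2 min before ATP; values reported per compound concentration.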

SMILES	inhibition at 10 µM [1] [%]	SOCE level (percentage of inhibition) ([1]; test compound 30 μmol) [%]	SOCE level (percentage of inhibition) ([1]; test compound 100 μmol) [%]	IICR level (percentage of inhibition) ([2]; test compound 10 μmol) [%]	IICR level (percentage of inhibition) ([2]; test compound 30 μmol) [%]	IICR level (percentage of inhibition) ([2]; test compound 100 μmol) [%]	inhibition at 30 µM ([1]; test compound 30 μmol) [%]	inhibition at 100 µM ([1]; test compound 100 μmol) [%]	inhibition at 10 µM ([2]; test compound 10 μmol) [%]	inhibition at 30 µM ([2]; test compound 30 μmol) [%]	inhibition at 100 µM ([2]; test compound 100 μmol) [%]
O=C(CCNCCO)c1ccc(Br)s1 [Example 307, 2-(N-hydroxyethyl)aminoethyl-5-bromo-2-thienylketone]	0	10	10	30	20	30	–	–	–	–	–
CC(C)N(CCC(=O)c1ccc(C#N)cc1)Cc1ccccc1 [Example 308, 2-(N-benzylisopropyl)aminoethyl-4-cyanophenylketone]	0	–	–	–	–	–	0	10	90	100	95
CC(C)N(CCO)CCC(=O)c1ccc(C#N)cc1 [Example 309, 2-(N-hydroxylethylisopropyl)aminoethyl-4-cyanophenylketone]	0	–	–	–	–	–	0	10	0	0	20
CC(C)N(CCC(=O)c1ccc(Cl)cc1)Cc1ccccc1 [Example 310, 2-(N-benzylisopropyl)aminoethyl-4-chloro-phenylketone]	0	–	–	–	–	–	0	10	80	80	70
CC(C)N(CCO)CCC(=O)c1ccc(Cl)cc1 [Example 311, 2-(N-hydroxyethylisopropyl)aminoethyl-4-chloro-phenylketone]	0	–	–	–	–	–	0	10	50	30	50
CC(C)N(CCO)CCC(=O)c1ccccc1 [Example 312, 2-(N-hydroxyethylisopropyl)aminoethylphenylketone]	0	–	–	–	–	–	0	10	20	20	80
CCN(CCC(=O)c1ccc(F)cc1)Cc1ccccc1 [Example 313, 2-(N-benzylethyl)aminoethyl-4-fluoro-phenylketone]	0	–	–	–	–	–	0	30	20	20	30
Cc1ccsc1C(=O)CCN(Cc1ccccc1)C(C)(C)C [Example 314, 2-(N-benzyl-t-butyl)aminoethyl-3-methyl-2-thienylketone]	0	–	–	–	–	–	10	20	70	70	100
Cc1csc(C(=O)CCN(Cc2ccccc2)C(C)(C)C)c1 [Example 315, 2-(N-benzyl-t-butyl)aminoethyl-4-methyl-2-thienylketone]	0	–	–	–	–	–	0	30	80	90	100
Cc1ccc(C(=O)CCN(Cc2ccccc2)C(C)(C)C)s1 [Example 316, 2-(N-benzyl-t-butyl)aminoethyl-5-methyl-2-thienylketone]	0	–	–	–	–	–	10	20	70	80	100
CC(C)(C)N(CCC(=O)c1ccc2c(c1)OCCO2)Cc1ccccc1 [Example 317, 2-(N-benzyl-t-butyl)aminoethyl-5,6-ethylenedioxy-2-phenylketone]	10	–	–	–	–	–	10	30	90	95	100
Cc1ccc(C(=O)CCN(Cc2ccccc2)C(C)C)s1 [Example 318, 2-(N-benzylisopropyl)aminoethyl-5-methyl-2-thienylketone]	10	–	–	–	–	–	20	40	10	60	80
CCN(CCC(=O)c1ccc(C)s1)Cc1ccccc1 [Example 319, 2-(N-benzylethyl)aminoethyl-5-methyl-2-thienylketone]	0	–	–	–	–	–	10	20	20	10	70
O=C(CCN(CCO)CCO)c1ccc(I)s1 [Example 320]	20	–	–	–	–	–	40	50	0	0	70
